Assays:
[1] = tested on: VGAT-ires-Cre mice, VTA/SN^VGAT neurons; assay: Locomotor activity; type: in vivo; settings: for locomotor activity vs vehicle: mice expressing both KORD and hM3Dq in VTA/SN^VGAT neurons, different testing sessions
[2] = tested on: AGRP-ires-cre mice, ARC^AgRP neurons with hM3Dq and KORD; assay: Feeding study with multiplexed KOR and hM3Dq DREADD; type: in vivo; settings: hM3Dq and KORD in ARC^AgRP neurons; CNO 1mg/kg i.p.
KORD (D138N hKOR) = KORD (D138N hKOR) (Homo sapiens, UniProt P41145, D138N); assay: cell-based; settings: for EC50: EC50(nM)
KOR [3] = target: T1, KOR (Homo sapiens, UniProt P41145); assay: cell-based
KORD = KORD (Homo sapiens, UniProt P41145, D138N); assay: Radioligand competition binding, KORD
KOR [4] = target: T1, KOR; assay: [3H]-diprenorphine radioligand competition binding, WT KOR
E297A mutant = E297A mutant (Homo sapiens, UniProt P41145, E297A); assay: Affinity and agonist potency at E297A KOR mutant; type: cell-based; settings: E297A mutant alone
C57BL/6J mice = settings: mouse, in vivo
VTA/SN neurons = assay: Miniature IPSC recording in VTA/SN neurons; type: cell-based; settings: naive mice; 100 nM
CNS molecular targets = assay: NIMH Psychoactive Drug Screening Program profiling; settings: NIMH PDSP; except low KOR binding affinity
[5] = tested on: SIM1-Cre mice, PVH^SIM1 neurons; assay: Feeding study in SIM1-cre mice; type: in vivo; settings: wild type control mice injected with cre-dependent KORD virus; 10 mg/kg s.c.
mice [6] = settings: mouse, in vivo
mice [7] = settings: mouse, in vivo; remark: listed apart in the source
[8] = tested on: muscarinic receptor- based DREADDs (Gq, Gi and Gs DREADDs); assay: Activity at muscarinic receptor-based DREADDs; type: cell-based

C[N+]1([O-])CCN(C2=Nc3cc(Cl)ccc3Nc3ccccc32)CC1 [CNO, clozapine-N-oxide]
locomotor activity, same session ([1]; dual DREADD mice, 3.0 mg/kg CNO): significant locomotor depression
locomotor activity in control mice ([1]; mCherry in VTA/SN^VGAT neurons, 3.0 mg/kg i.p.): did not affect behavior
locomotor activity vs vehicle ([1]; 3.0 mg/kg): decreased locomotor activity
light cycle food intake [2]: 0.75 ± 0.03 g

CC[C@H](C)[C@H](NC(=O)[C@H](CCCNC(=N)N)NC(=O)[C@H](CCCNC(=N)N)NC(=O)[C@H](CC(C)C)NC(=O)[C@H](Cc1ccccc1)NC(=O)CNC(=O)CNC(=O)[C@@H](N)Cc1ccc(O)cc1)C(=O)N[C@@H](CCCNC(=N)N)C(=O)N1CCC[C@H]1C(=O)N[C@@H](CCCCN)C(=O)N[C@@H](CC(C)C)C(=O)N[C@@H](CCCCN)C(=O)O [Dynorphin A(1-13)]
EC50 (KORD (D138N hKOR)): > 10000 nM
EC50 (KOR [3]; EC50(nM)): 19 nM
EC50 (KOR [3]; pEC50 ± SEM): 19.5 nM
Ki (KORD): 1620 nM
Ki (KOR [4]): 3.16 nM

COC(=O)[C@@H]1C[C@H](O)C(=O)[C@H]2[C@@]1(C)CC[C@H]1C(=O)O[C@H](c3ccoc3)C[C@]21C [Salvinorin B, salvinorin B]
effect of E297A mutation on agonist potency (E297A mutant): no effect on SALB agonist potency
brain stimulation reward thresholds (ICSS) (C57BL/6J mice): failed to significantly elevate thresholds
locomotor activity vs vehicle ([1]; 10.0 mg/kg): enhanced locomotor activity
mIPSCs (frequency and amplitude) (VTA/SN neurons): no effect
activity against a large number of CNS molecular targets (CNS molecular targets): failed to show any activity
Emax (KORD (D138N hKOR)): 94%
Emax (%) (KORD (D138N hKOR)): 100%
feeding effect [5]: no feeding effects
Emax (KOR [3]): 80%
Emax (%) (KOR [3]): 100%
hot plate test effect (analgesia) (mice [6]): did not alter performance relative to controls
rotarod test effect (impairment of motor performance) (mice [7]): did not alter performance relative to controls
activity at muscarinic receptor-based DREADDs [8]: inactive

CC[C@H](C)[C@H](NC(=O)[C@H](C)NC(=O)[C@H](CC(N)=O)NC(=O)[C@H](CCCCN)NC(=O)[C@H](Cc1ccccc1)NC(=O)[C@H](CC(C)C)NC(=O)[C@@H](NC(=O)[C@@H](NC(=O)[C@H](CC(C)C)NC(=O)[C@@H]1CCCN1C(=O)[C@@H](NC(=O)[C@H](CCC(N)=O)NC(=O)[C@H](CO)NC(=O)[C@H](CCCCN)NC(=O)[C@H](CCC(=O)O)NC(=O)[C@H](CO)NC(=O)[C@@H](NC(=O)[C@H](CCSC)NC(=O)[C@H](Cc1ccccc1)NC(=O)CNC(=O)CNC(=O)[C@@H](N)Cc1ccc(O)cc1)[C@@H](C)O)[C@@H](C)O)C(C)C)[C@@H](C)O)C(=O)N[C@H](C(=O)N[C@@H](CCCCN)C(=O)N[C@@H](CC(N)=O)C(=O)N[C@@H](C)C(=O)N[C@@H](Cc1ccc(O)cc1)C(=O)N[C@@H](CCCCN)C(=O)N[C@@H](CCCCN)C(=O)NCC(=O)N[C@@H](CCC(=O)O)C(=O)O)[C@@H](C)CC [β-Endorphin (1-31)]
EC50 (KORD (D138N hKOR)): > 10000 nM
Emax (KOR [3]): 100%
EC50 (KOR [3]; EC50(nM)): 706 nM
EC50 (KOR [3]; pEC50 ± SEM): 708 nM

Reference: paper PMC4441592 (Neuron, 2015)
